Values after ≈ are worked out from the molar mass of the structure shown.
Experiments:
[1] = system: Candida albicans; experiment: Antifungal activity against Candida albicans ATCC 90028 after 48 hrs by broth-microdilution method; type: functional; settings: ATCC 90028, 48 h
[2] = system: Candida albicans; experiment: Antifungal activity against Candida albicans ATCC 24433 after 48 hrs by broth-microdilution method; type: functional; settings: ATCC 24433, 48 h
[3] = target: T1, Glycylpeptide N-tetradecanoyltransferase (Candida albicans (strain SC5314 / ATCC MYA-2876) (Yeast), UniProt P30418); experiment: Inhibition of Candida albicans ATCC 90028 NMT using GLTISKLFRR-NH2 as substrate assessed as reduction in [3H]-myristoylated peptide reaction product formation preincubated with substrate for 10 mins followed by enzyme addition measured after 10 mins by HPLC analysis
T1 sequence (P30418 whole entry): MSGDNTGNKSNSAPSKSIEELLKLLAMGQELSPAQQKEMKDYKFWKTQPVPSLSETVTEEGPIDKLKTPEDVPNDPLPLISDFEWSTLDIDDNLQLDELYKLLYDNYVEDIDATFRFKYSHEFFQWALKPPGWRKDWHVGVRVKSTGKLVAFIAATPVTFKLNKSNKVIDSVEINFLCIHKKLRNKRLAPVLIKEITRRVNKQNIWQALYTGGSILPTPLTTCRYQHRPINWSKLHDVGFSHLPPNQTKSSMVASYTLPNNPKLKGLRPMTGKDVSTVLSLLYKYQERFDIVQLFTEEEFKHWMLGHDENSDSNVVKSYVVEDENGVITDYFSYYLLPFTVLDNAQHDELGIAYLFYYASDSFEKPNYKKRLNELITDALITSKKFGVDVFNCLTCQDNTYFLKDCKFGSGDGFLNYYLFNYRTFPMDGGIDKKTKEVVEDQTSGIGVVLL

[4] = system: Cryptococcus neoformans; experiment: Antifungal activity against Cryptococcus neoformans TIMM 3173 after 48 hrs by broth-microdilution method; type: functional; settings: TIMM 3173, 48 h
[5] = system: Candida albicans; experiment: Antifungal activity against Candida albicans TIMM 0239 after 48 hrs by broth-microdilution method; type: functional; settings: TIMM 0239, 48 h
[6] = system: Candida albicans; experiment: Antifungal activity against Candida albicans TIMM 0171 after 48 hrs by broth-microdilution method; type: functional; settings: TIMM 0171, 48 h
[7] = system: Aspergillus fumigatus; experiment: Antifungal activity against Aspergillus fumigatus IFM 40808 after 48 hrs by broth-microdilution method; type: functional; settings: IFM 40808, 48 h
[8] = system: Candida albicans; experiment: Antifungal activity against Candida albicans ATCC 44859 after 48 hrs by broth-microdilution method; type: functional; settings: ATCC 44859, 48 h
[9] = system: Candida albicans; experiment: Antifungal activity against Candida albicans IFM 40009 after 48 hrs by broth-microdilution method; type: functional; settings: IFM 40009, 48 h
[10] = system: Candida albicans; experiment: Antifungal activity against Candida albicans IFM 5728 after 48 hrs by broth-microdilution method; type: functional; settings: IFM 5728, 48 h
[11] = Inhibition of Aspergillus fumigatus AGM1
[12] = system: Kluyveromyces marxianus; experiment: Antifungal activity against Candida kefyr; type: functional
[13] = system: Candida albicans; experiment: Antifungal activity against Candida albicans; type: functional
[14] = system: Candida albicans; experiment: Antibiofilm activity against Candida albicans SC5314 assessed as inhibition of mature biofilm formation at 8 to 32 ug/ml after 24 hrs by XTT reduction assay; type: functional
[15] = system: Candida albicans; experiment: Antifungal activity against fluconazole-resistant Candida albicans clinical isolate 6482 planktonic cells after 48 hrs by broth microdilution assay; type: functional; settings: isolate 6482, 48 h
[16] = system: Candida albicans; experiment: Antifungal activity against fluconazole-resistant Candida albicans SC5314 planktonic cells after 48 hrs by broth microdilution assay; type: functional; settings: SC5314, 48 h
[17] = system: Candida albicans; experiment: Antibiofilm activity against Candida albicans SC5314 assessed as inhibition of biofilm formation at 2 to 4 ug/ml after 24 hrs by XTT reduction assay; type: functional
[18] = system: Candida albicans; experiment: Antifungal activity against fluconazole-resistant Candida albicans clinical isolate 3731 planktonic cells after 48 hrs by broth microdilution assay; type: functional; settings: isolate 3731, 48 h
[19] = system: Candida albicans; experiment: Antifungal activity against fluconazole-resistant Candida albicans clinical isolate 4639 planktonic cells after 48 hrs by broth microdilution assay; type: functional; settings: isolate 4639, 48 h
[20] = system: Candida albicans; experiment: Antifungal activity against fluconazole-resistant Candida albicans clinical isolate 2440 planktonic cells after 48 hrs by broth microdilution assay; type: functional; settings: isolate 2440, 48 h
[21] = system: Candida albicans; experiment: Antifungal activity against fluconazole-resistant Candida albicans clinical isolate 6191 planktonic cells after 48 hrs by broth microdilution assay; type: functional; settings: isolate 6191, 48 h
[22] = system: Candida albicans; experiment: Antifungal activity against fluconazole-resistant Candida albicans clinical isolate 4617 planktonic cells after 48 hrs by broth microdilution assay; type: functional; settings: isolate 4617, 48 h
[23] = system: Candida albicans; experiment: Antifungal activity against fluconazole-resistant Candida albicans clinical isolate 3034 planktonic cells after 48 hrs by broth microdilution assay; type: functional; settings: isolate 3034, 48 h
[24] = system: Candida albicans; experiment: Antifungal activity against fluconazole-resistant Candida albicans clinical isolate 412 planktonic cells after 48 hrs by broth microdilution assay; type: functional; settings: isolate 412, 48 h
[25] = system: Candida albicans; experiment: Antifungal activity against fluconazole-resistant Candida albicans clinical isolate 1691 planktonic cells after 48 hrs by broth microdilution assay; type: functional; settings: isolate 1691, 48 h
[26] = system: Candida albicans; experiment: Antifungal activity against fluconazole-resistant Candida albicans clinical isolate 4380 planktonic cells after 48 hrs by broth microdilution assay; type: functional; settings: isolate 4380, 48 h
[27] = system: Candida albicans; experiment: Antifungal activity against fluconazole-resistant Candida albicans clinical isolate 2307 planktonic cells after 48 hrs by broth microdilution assay; type: functional; settings: isolate 2307, 48 h
[28] = system: Candida albicans; experiment: Antifungal activity against fluconazole-resistant Candida albicans clinical isolate 5106 planktonic cells after 48 hrs by broth microdilution assay; type: functional; settings: isolate 5106, 48 h
[29] = system: Aspergillus fumigatus; experiment: Antifungal activity against Aspergillus fumigatus MTU 06002; type: functional
[30] = system: Candida albicans; experiment: Inhibition of Cch1 in Candida albicans isolate 10 assessed as potentiation of fluconazole-induced antifungal activity by measuring fractional inhibitory concentration index after 24 hrs by checkerboard assay
[31] = system: Candida albicans; experiment: Inhibition of Cch1 in Candida albicans isolate 16 assessed as potentiation of fluconazole-induced antifungal activity by measuring fractional inhibitory concentration index after 24 hrs by checkerboard assay
[32] = system: Candida albicans; experiment: Antifungal activity against Candida albicans ATCC 10231 after 24 hrs by CLSI protocol based method; type: functional; settings: ATCC 10231, 24 h
[33] = system: Cryptococcus neoformans; experiment: Antifungal activity against Cryptococcus neoformans H99 after 48 hrs; type: functional; settings: var grubii H99 
[34] = system: Saccharomyces cerevisiae; experiment: Inhibition of Saccharomyces cerevisiae AHAS
[35] = system: Cryptococcus neoformans; experiment: Antifungal activity against Cryptococcus neoformans after 24 hrs; type: functional
[36] = system: Aspergillus fumigatus; experiment: Antifungal activity against Aspergillus fumigatus after 24 hrs; type: functional
[37] = system: Candida albicans; experiment: Antifungal activity against Candida albicans after 24 hrs; type: functional

`O=C(Nc1nc2ccc(NC(=O)[C@@H]3CCC[C@H](NCc4ccc5ccccc5c4)C3)cc2s1)C1CCCC1` showed an MIC [1] of 0.78 µM (≈ 0.411 µg/mL), an MIC [2] of 0.78 µM (≈ 0.411 µg/mL) and an IC50 [3] of 0.00049 µM. It also gave an MIC [4] of over 25 µM, an MIC [5] of 0.78 µM (≈ 0.411 µg/mL) and an MIC [6] of 0.78 µM (≈ 0.411 µg/mL). It also gave an MIC [7] of over 25 µM, an MIC [8] of 0.78 µM (≈ 0.411 µg/mL) and an MIC [9] of 0.78 µM (≈ 0.411 µg/mL). It also gave an MIC [10] of 0.78 µM (≈ 0.411 µg/mL).
Work on `Cc1nc(/N=N/c2ccc(C(=O)O)cc2)c(COP(=O)(O)O)c(C=O)c1O` yielded an IC50 [11] of 7.1 µM.
Compound `N[C@@H](CC(=O)CO)C(=O)O` has an MIC [12] of 6.25 to 12.5 µg/mL (≈ 42.5 to 85 µM).
`N=C(N)NCCC[C@H](N)C(=O)N[C@@H](/C=C/CP(=O)(O)O)C(=O)O` gave an MIC [13] of 0.35 µg/mL (≈ 0.996 µM).
For `CCCCCCCCCCCCCCCCOP(=O)([O-])OCC[N+](C)(C)C` [MILTEFOSINE], the “inhibition (INH)” value [14] was over 90%, the MIC [15] was 0.5 to 2 µg/mL (≈ 1.23 to 4.91 µM) and the MIC [16] was 0.5 to 2 µg/mL (≈ 1.23 to 4.91 µM). The “inhibition (INH)” value [17] was 90%, the MIC [18] was 0.5 to 2 µg/mL (≈ 1.23 to 4.91 µM) and the MIC [19] was 0.5 to 2 µg/mL (≈ 1.23 to 4.91 µM). It also gave an MIC [20] of 0.5 to 2 µg/mL (≈ 1.23 to 4.91 µM), an MIC [21] of 0.5 to 2 µg/mL (≈ 1.23 to 4.91 µM) and an MIC [22] of 0.5 to 2 µg/mL (≈ 1.23 to 4.91 µM). For the same compound, the MIC [23] was 0.5 to 2 µg/mL (≈ 1.23 to 4.91 µM), the MIC [24] was 0.5 to 2 µg/mL (≈ 1.23 to 4.91 µM) and the MIC [25] was 0.5 to 2 µg/mL (≈ 1.23 to 4.91 µM). For the same compound, the MIC [26] was 0.5 to 2 µg/mL (≈ 1.23 to 4.91 µM), the MIC [27] was 0.5 to 2 µg/mL (≈ 1.23 to 4.91 µM) and the MIC [28] was 0.5 to 2 µg/mL (≈ 1.23 to 4.91 µM).
Work on `C/N=[N+](\[O-])CC[C@H](N)C(=O)O` yielded an IC80 [29] of 0.72 µg/mL (≈ 4.47 µM).
In the case of `CCOC(=O)C1=C(COCCN)NC(C)=C(C(=O)OC)C1c1ccccc1Cl` (stereo not given), the fractional inhibitory concentration index (FICI) [30] is reported as 0.017 to 0.035 and the fractional inhibitory concentration index (FICI) [31] is reported as 0.017 to 0.035.
With `COC(=O)C1=C(C)NC(C)=C(C(=O)OC)C1c1ccccc1[N+](=O)[O-]` the fractional inhibitory concentration index (FICI) [30] was 0.017 to 0.035 and the fractional inhibitory concentration index (FICI) [31] was 0.017 to 0.035.
Work on `O=C(O)C[C@]1(C(=O)O)OC1C(=O)O` (stereo not given in full) yielded an MIC [32] of over 512 µg/mL.
With `Nc1ccc(O)c2c1C(=O)c1c(O)ccc(N)c1C2=O` the Ki [11] was 300 µM.
With `Cc1nn(-c2ccccc2)c2nc(C(F)(F)F)cc(O)c12` the MIC80 [33] was 32 to 64 µg/mL (≈ 109 to 218 µM).
`CCc1cccc(C)c1NS(=O)(=O)c1nc2nc(C)cc(C3CC3)n2n1` showed an IC30 [34] of 4.2 µM, an MIC50 [35] of 4 µg/mL (≈ 10.8 µM) and an MIC50 [36] of 4 µg/mL (≈ 10.8 µM). For the same compound, the MIC50 [37] was 1 µg/mL (≈ 2.69 µM).

Source: ChEMBL document CHEMBL4190370, “Emerging New Targets for the Treatment of Resistant Fungal Infections” (J Med Chem, 2018)
